Where “and” joins values, the source holds several entries; their conditions need not be identical. Equal values may be shown once. Entries after “also recorded” stand apart in the source; their conditions may differ.

The series in a line: Cyclic voltammetry: anodic peak potentials of aqueous Eu(II) cryptates vs ferrocene/ferrocenium (oxidative stability). The class given is physicochemical. The conditions noted are these: for Anodic peak potentials (Epa) with respect to ferrocene/ferrocenium (Fc/Fc+): aqueous MOPS 0.01 M pH 7.5, Et4NClO4 0.05 M, Ar, ambient temperature, scan rate 150 mV/s, mean ± standard error; for Increase in oxidative stability of Eu(II) compared to cryptand 3: difference in anodic peak potential, Eu(II) complex of the cryptand. From the text: To synthesize the diverse set of cryptands 2 and 4-6, a three-step procedure was devised that involved common intermediates 7, 9, and 11 (Scheme 1). Briefly, the synthesis involved the conversion of the appropriate ethylenediols or catechols to the corresponding ditosylates (7, 9, and 11) followed by ring closure with 1,4,10,13-tetraoxa-7,16-diazacyclooctadecane, 2,2′-(ethylenedioxy)bis(ethylamine) or 1,4,10,13-tetrathia-7,16-diazacyclooctadecane.
To synthesize the diverse set of cryptands 1-6, a three-step procedure was devised that involved common intermediates 7, 9, and 11 (Scheme 1). Briefly, the synthesis involved the conversion of the appropriate ethylenediols or catechols to the corresponding ditosylates (7, 9, and 11) followed by ring closure with 1,4,10,13-tetraoxa-7,16-diazacyclooctadecane, 2,2′-(ethylenedioxy)bis(ethylamine), or 1,4,10,13-tetrathia-7,16-diazacyclooctadecane. […] The resulting solution was placed in a standard three-electrode cell (glassy-carbon working electrode, Pt-wire auxiliary electrode, and Ag/AgCl (1.0 M KCl) reference electrode). The potential at the carbon electrode was held at −0.8 V (vs Ag/AgCl) while stirring to produce Eu^II in situ for metalation.
^1H NMR spectra were obtained using a Varian Unity 300 (300 MHz) spectrometer and a Mercury 400 (400 MHz) spectrometer, ^13C NMR spectra were obtained using a Varian Unity 300 (75 MHz) spectrometer and a Mercury 400 (101 MHz) spectrometer. ^19F NMR spectra were obtained using Varian Unity 300 (282 MHz) spectrometer. […] NMR data are assumed to be first order, and the apparent multiplicity is reported as “s”=singlet, “d”=doublet, “dd”=doublet of doublets, “t”=triplet, “td”=triplet of doublets, “q”=quartet, “m”=multiplet, or “brs”=broad singlet. Italicized elements are those that are responsible for the shifts. High-resolution electrospray ionization mass spectra (HRESIMS) were obtained on an electrospray time-of-flight high-resolution Waters Micromass LCT Premier XE mass spectrometer. Cyclic voltammetric analyses were performed using a WaveNow USB potentiostat (Pine Research Instrumentation). A standard three-electrode cell was used with a glassy-carbon working electrode, a Pt-wire auxiliary electrode, and a Ag/AgCl reference electrode (1.0 M KCl). All electrochemical experiments were performed under an Ar atmosphere at ambient temperature with Et4NClO4 (0.05 M) as the supporting electrolyte, an aqueous solution of 3-(N-morpholino)propanesulfonic acid (MOPS, 0.01 M, pH 7.5) as the solvent, and the ferrocene/ferrocinium (Fc/Fc+) redox couple as an internal standard. From the initial potential of the analysis (−1.5 V), the voltage was ramped to 0.75 V and back to −1.5 V at a scan rate of 150 mV/s. […] After each measurement, ferrocene (6.7 mM in acetonitrile) was added to the sample (0.13 mM ferrocene after addition) and the measurement was repeated to enable referencing to Fc/Fc+.
To an aqueous solution of 3-(N-morpholino)propanesulfonic acid (MOPS) (0.01 M, pH 7.5), Et4NClO4 (0.05 M), and Eu(NO3)3.5H2O (1.1 mM, 1 equiv) was added a solution of the desired cryptand (12 mM, 1.2 equiv) in acetonitrile, and the resulting mixture was sparged with Ar for 5 minutes. The potential of the resulting solution was held at −0.8 V (30 minutes per 0.01 mmol of Eu(NO3)3.5H2O) while stirring under constant sparging with Ar. Immediately after holding the potential at −0.8 V, cyclic voltammograms were obtained in the potential range of −1.5 to 0.75 V at a scan rate of 150 mV/s. After acquiring the voltammogram, ferrocene (6.7 mM in acetonitrile, 0.1 equiv) was added, and another cyclic voltammogram was obtained. These cyclic voltammetric experiments were repeated 3-6 times for each ligand.

In the case of `Fc1ccc2c(c1)OCCN1CCOCCOCCN(CCOCCOCC1)CCO2` [4-Eu], the “Anodic peak potentials (Epa) with respect to ferrocene/ferrocenium (Fc/Fc+)” value is on record as −0.079 ± 0.007 V vs, Fc/Fc^+. In addition, the “Oxidative stability compared to hemoglobin (in words)” value (Fe(II) in hemoglobin, p=0.64, p=0.45) is given as “statistically identical; also recorded: not different”. For `c1ccc2c(c1)OCCN1CCSCCSCCN(CCO2)CCSCCSCC1` [6-Eu], the “Anodic peak potentials (Epa) with respect to ferrocene/ferrocenium (Fc/Fc+)” value is given as −0.035 ± 0.010 V vs, Fc/Fc^+.

For `O=[N+]([O-])[O-].O=[N+]([O-])[O-].O=[N+]([O-])[O-].[Eu+3]` [Eu(NO3)3, reference compound], the “Anodic peak potentials (Epa) with respect to ferrocene/ferrocenium (Fc/Fc+)” value is given as −0.701 ± 0.030 V vs, Fc/Fc^+. On to `CC1(C)OCCN2CCOCCOCCN(CCOC1(C)C)CCOC(C)(C)C(C)(C)OCC2` [cryptand 2, 5,5,6,6,14,14,15,15-Octamethyl-4,7,13,16,21,24-hexaoxa-1,10-diazabicyclo[8.8.8]hexacosane], for which, for the setting “cyclic voltammetric data of Eu-containing solutions”, the “Oxidative stability compared to unmodified cryptand 1 (in words)” value is “increased oxidative stability”. In the case of `Fc1ccc2c(c1)OCCN1CCOCCOCCN(CCOCCOCC1)CCO2` [cryptand 4, 5,6-(4-Fluorobenzo)-4,7,13,16,21,24-hexaoxa-1,10-diazabicyclo[8.8.8]hexacos-5-ene], the “Increase in oxidative stability of Eu(II) compared to cryptand 3” value is 133 mV and 129 mV. As for `c1ccc2c(c1)OCCN1CCOCCOCCN(CCO2)CCOc2ccccc2OCC1` [cryptand 5, 5,6,14,15-Dibenzo-4,7,13,16,21,24-hexaoxa-1,10-diazabicyclo[8.8.8]hexacosane], the “Anodic peak potential compared to mono-phenyl substituted cryptand 3 (in words)” value (p=0.76) is “no significant difference”. With `c1ccc2c(c1)OCCN1CCSCCSCCN(CCO2)CCSCCSCC1` [cryptand 6, 5,6-Benzo-4,7-dioxa-13,16,21,24-tetrathia-1,10-diazabicyclo[8.8.8]hexacos-5-ene], the “Increase in oxidative stability of Eu(II) compared to cryptand 3” value is recorded as 173 mV. Further, where the note is “cryptand with Eu(II)”, the “Oxidative potential more positive than hemoglobin (Fe^2+/3+)” value stood at 35 mV and the “Oxidative potential more positive than the Eu aqua ion” value is 666 mV.

With “hemoglobin: Human hemoglobin from RayBiotech Inc.; Fe(II) oxidation used as biological comparison [reference compound]”, the “Anodic peak potentials (Epa) with respect to ferrocene/ferrocenium (Fc/Fc+)” value is −0.070 ± 0.003 V vs, Fc/Fc^+.
